This is an account of results in patent US20130053395A1, “PYRAZOLOPYRIDINE KINASE INHIBITORS” (VERTEX PHARMACEUTICALS INCORPORATED, priority 2010, published 2013).

Some results are limits rather than exact numbers.

Experiment [1] concerns the target PKC delta kinase (Homo sapiens, UniProt Q05655). Briefly: PKC delta kinase coupled-enzyme (NADH) Ki assay. In kind it is biochemical. As to conditions: 46 nM PKC delta, 150 μM ATP, 30° C., initial rate at 340 nM. Here is the method: An assay buffer solution was prepared which consisted of 100 mM HEPES (pH 7.5), 10 mM MgCl2, 25 mM NaCl, 0.1 mM EDTA and 0.01% Brij. An enzyme buffer containing reagents to final assay concentrations of 0.002% Triton X-100, 200 μg/mL Phosphatidylserine, 20 μg/mL Diacylglycerol, 360 μM NADH, 3 mM phosphoenolpyruvate, 70 μg/mL pyruvate kinase, 24 μg/mL lactate dehydrogenase, 2 mM DTT, 150 μM substrate peptide ([…] SEQ ID NO. 2) and 46 nM PKC delta kinase was prepared in assay buffer. To 16 μL of this enzyme buffer, in a 384 well plate, was added 1 μL of VRT stock solution in DMSO. The mixture was allowed to equilibrate for 10 mins at 30° C. The enzyme reaction was initiated by the addition of 16 μL stock ATP solution prepared in assay buffer to a final assay concentration of 150 μM. Initial rate data was determined from the rate of change of absorbance at 340 nm (corresponding to stoichiometric consumption of NADH) using a Molecular Devices Spectramax plate reader (Sunnyvale, Calif.) over 15 mins at 30° C. For each Ki determination 12 data points covering the VRT concentration range of 0-20 μM were obtained in duplicate (DMSO stocks were prepared from an initial 10 mM VRT stock with subsequent 1:2 serial dilutions). Ki values were calculated from initial rate data by non-linear regression using the Prism software package (Prism 4.0a, Graphpad Software, San Diego, Calif.).

Experiment [2] has as its target PKC theta kinase (Homo sapiens, UniProt Q04759). Briefly: PKC theta kinase coupled-enzyme (NADH) Ki assay. The format is biochemical. As to conditions: 18 nM PKC theta, 240 μM ATP, 30° C., initial rate at 340 nM. On the procedure:
An assay buffer solution was prepared which consisted of 100 mM HEPES (pH 7.5), 10 mM MgCl2, 25 mM NaCl, 0.1 mM EDTA and 0.01% Brij. An enzyme buffer containing reagents to final assay concentrations of 0.00001% Triton X-100, 200 μg/mL Phosphatidylserine, 20 μg/mL Diacylglycerol, 360 μM NADH, 3 mM phosphoenolpyruvate, 70 μg/mL pyruvate kinase, 24 μg/mL lactate dehydrogenase, 2 mM DTT, 100 μM substrate peptide ([…] SEQ ID NO. 1) and 18 nM PKC theta kinase was prepared in assay buffer. To 60 μL of this enzyme buffer, in a 384 well plate, was added 2 μL of VRT stock solution in DMSO. The mixture was allowed to equilibrate for 10 mins at 30° C. The enzyme reaction was initiated by the addition of 5 μL stock ATP solution prepared in assay buffer to a final assay concentration of 240 μM. Initial rate data was determined from the rate of change of absorbance at 340 nm (corresponding to stoichiometric consumption of NADH) using a Molecular Devices Spectramax plate reader (Sunnyvale, Calif.) over 15 mins at 30° C. For each Ki determination 12 data points covering the VRT concentration range of 0-20 μM were obtained in duplicate (DMSO stocks were prepared from an initial 10 mM VRT stock with subsequent 1:2 serial dilutions). Ki values were calculated from initial rate data by non-linear regression using the Prism software package (Prism 4.0a, Graphpad Software, San Diego, Calif.).

As a reminder, the Ki is a dissociation constant, usually derived from enzyme kinetics or from competition with a known ligand. A high value points to lower affinity.

Sequence of PKC delta kinase (Q05655 whole entry): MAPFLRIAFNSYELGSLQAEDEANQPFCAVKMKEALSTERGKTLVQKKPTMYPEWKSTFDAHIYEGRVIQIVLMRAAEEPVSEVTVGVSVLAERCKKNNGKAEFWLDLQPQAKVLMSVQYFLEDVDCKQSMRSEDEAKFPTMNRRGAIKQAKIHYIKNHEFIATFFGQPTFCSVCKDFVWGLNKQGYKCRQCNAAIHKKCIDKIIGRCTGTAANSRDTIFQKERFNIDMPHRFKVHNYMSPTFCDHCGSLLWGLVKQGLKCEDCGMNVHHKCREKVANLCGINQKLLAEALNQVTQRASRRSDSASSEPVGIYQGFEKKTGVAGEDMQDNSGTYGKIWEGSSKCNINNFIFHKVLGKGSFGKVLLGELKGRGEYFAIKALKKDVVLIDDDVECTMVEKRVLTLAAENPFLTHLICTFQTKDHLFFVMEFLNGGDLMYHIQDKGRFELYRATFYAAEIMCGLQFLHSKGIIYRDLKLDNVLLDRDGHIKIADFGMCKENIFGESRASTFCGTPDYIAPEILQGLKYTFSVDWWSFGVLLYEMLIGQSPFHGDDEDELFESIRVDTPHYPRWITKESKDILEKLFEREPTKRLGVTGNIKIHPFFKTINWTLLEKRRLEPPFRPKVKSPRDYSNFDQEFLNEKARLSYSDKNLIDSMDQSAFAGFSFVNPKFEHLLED
Sequence of PKC theta kinase (Q04759 whole entry): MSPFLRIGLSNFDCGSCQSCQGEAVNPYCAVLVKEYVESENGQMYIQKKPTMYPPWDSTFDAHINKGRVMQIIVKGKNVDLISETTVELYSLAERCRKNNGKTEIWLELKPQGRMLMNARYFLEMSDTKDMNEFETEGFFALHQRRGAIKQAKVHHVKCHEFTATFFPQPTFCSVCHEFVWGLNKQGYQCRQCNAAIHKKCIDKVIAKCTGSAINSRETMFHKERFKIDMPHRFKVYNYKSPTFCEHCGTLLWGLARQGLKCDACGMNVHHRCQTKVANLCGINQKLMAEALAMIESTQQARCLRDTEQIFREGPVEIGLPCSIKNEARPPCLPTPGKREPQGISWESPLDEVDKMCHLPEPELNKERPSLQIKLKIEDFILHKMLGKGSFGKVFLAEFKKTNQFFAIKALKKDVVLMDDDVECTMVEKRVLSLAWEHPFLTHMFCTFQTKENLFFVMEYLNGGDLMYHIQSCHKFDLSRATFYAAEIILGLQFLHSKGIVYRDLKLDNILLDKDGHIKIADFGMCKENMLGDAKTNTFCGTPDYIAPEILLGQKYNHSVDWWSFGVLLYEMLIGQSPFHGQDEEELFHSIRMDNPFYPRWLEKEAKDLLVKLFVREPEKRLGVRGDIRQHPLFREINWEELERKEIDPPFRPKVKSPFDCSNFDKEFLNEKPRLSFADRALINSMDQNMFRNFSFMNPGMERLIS

As for `OC1(C2CN(c3nc(-c4n[nH]c5ncccc45)c(F)cc3F)CCN2)CCC1` (centres unmarked) [Compound 2], the values for the Ki in experiment [1] and in experiment [2] were below 500 nM and below 1 nM, respectively.

For `CC(C)C[C@@H]1CN(c2nc(-c3n[nH]c4ncccc34)c(F)cc2Cl)CCN1` [Compound 8], the Ki in experiment [2] was below 50 nM.

Turning to `OC1(C2CN(c3nc(-c4n[nH]c5ncccc45)c(F)cc3Cl)CCN2)CCC1` (centres unmarked) [Compound 6], the Ki in experiment [1] was below 50 nM; in experiment [2] it was below 1 nM.

The molecule `CC(C)C[C@@H]1CN(c2nc(-c3n[nH]c4ncccc34)c(F)cc2F)CCN1` [Compound 7] showed a Ki in experiment [2] below 50 nM.

For the molecule `CC(C)(O)[C@@H]1CN(c2nc(-c3n[nH]c4ncccc34)c(F)cc2Cl)CCN1` [Compound 5], the Ki in experiment [1] was below 50 nM; in experiment [2], below 1 nM.

As to `CCC(O)(CC)[C@@H]1CN(c2nc(-c3n[nH]c4ncccc34)c(F)cc2F)CCN1` [Compound 3], the figures for the Ki in experiment [1] and in experiment [2] were below 500 nM and below 1 nM, respectively.

With `CC(C)C[C@@H]1CN(c2nc(-c3n[nH]c4ncccc34)c(C#N)cc2F)CCN1` [Compound 11, (R)-5-fluoro-6-(3-isobutylpiperazin-1-yl)-2-(1H-pyrazolo[3,4-b]pyridin-3-yl)nicotinonitrile], the Ki in experiment [1] is above 1250 nM; in experiment [2], below 2800 nM.

Turning to `OC[C@@H]1CN(c2nc(-c3n[nH]c4ncccc34)c(F)cc2Cl)CCN1` [Compound 9], the inhibitory constant (Ki) in experiment [1] and in experiment [2] was below 50 nM each time.

In the case of `OC1([C@@H]2CN(c3nc(-c4n[nH]c5ncccc45)c(F)cc3Cl)CCN2)CC1` [Compound 4], the Ki in experiment [1] is below 50 nM; in experiment [2] it was below 1 nM.

Regarding `OC[C@@H]1CN(c2nc(-c3n[nH]c4ncccc34)c(F)cc2F)CCN1` [Compound 10], the Ki is above 1250 nM in experiment [1] and below 500 nM in experiment [2].

Regarding `CC(C)(O)[C@@H]1CN(c2nc(-c3n[nH]c4ncccc34)c(F)cc2F)CCN1` [Compound 1, (S)-2-(4-(3,5-difluoro-6-(1H-pyrazolo[3,4-b]pyridin-3-yl)pyridin-2-yl)piperazin-2-yl)propan-2-ol], the Ki is below 500 nM in experiment [1] and below 50 nM in experiment [2].
